Data: US6906035B2, “Antimicrobial cationic peptides” (priority 1995, dated 2005)
Ends that are not written are not given here.

Columns and labels:
P. aeruginosa = P. aeruginosa (H187); Table 6
Procedure: FICs are performed by checkerboard titrations of peptides in one dimension of a microtiter plate, and of antibiotics in the other dimension, for example. The FIC is calculated by looking at the impact of one antibiotic on the MIC of the other and vice versa. […] Preferably, an FIC of less than 0.5 is obtained for synergism. As used herein, FIC can be determined as follows: [formula]
(§1) Briefly, cells were grown overnight at 37° C. in LB-S (Luria broth without any salt supplement) and diluted one in 10,000 in the same medium to give concentrations of about 10^4 to 10^5 CFU/ml. The broth dilutions were set up in a 96 well microtiter plate by putting 200 μl of LB-S containing the initial concentration of antibiotic or compound in column 1 and 100 μl of the same medium in columns 2-12. The compounds were diluted by taking 100 μl of broth from column 1 and mixing it with column 2, resulting in a one in two dilution. This was continued to column 10. Finally, 10 μl of bacteria were pipetted into columns 1-11, and the plates incubated overnight at 37° C. The next day the plates were scored for growth in the wells, and the MIC determined.

E. coli = assay: MIC, broth dilution in LB-S; format: cell-based; settings: E. coli (UB 1005); Table 6
Procedure: The biological activity of the peptides can be determined by standard methods known to those of skill in the art, such as “minimal inhibitory concentration (MIC)” assay described in the present examples, whereby the lowest concentration at which no change in OD is observed for a given period of time is recorded as MIC. Alternatively, “fractional inhibitory concentration (FIC)” is also useful for determination of synergy between the peptides of the invention, or the peptides in combination with known antibiotics. FICs are performed by checkerboard titrations of peptides in one dimension of a microtiter plate, and of antibiotics in the other dimension, for example. The FIC is calculated by looking at the impact of one antibiotic on the MIC of the other and vice versa. […] Preferably, an FIC of less than 0.5 is obtained for synergism. As used herein, FIC can be determined as follows: [formula]
as §1

Red Blood Cells = assay: Red blood cell lysis; format: cell-based; settings: concentration lysing Red Blood Cells

Compound | MIC P. aeruginosa (H187) (P. aeruginosa) [µg/mL] | MIC E. coli (UB 1005) (E. coli) [µg/mL] | RBC Lysis (Red Blood Cells) [µg/mL]
CC[C@H](C)[C@H](NC(=O)[C@H](CC(C)C)NC(=O)[C@H](C)NC(=O)[C@@H]1CCCN1C(=O)[C@H](CC(C)C)NC(=O)CNC(=O)[C@@H](NC(=O)[C@@H](NC(=O)[C@H](CC(C)C)NC(=O)[C@@H](NC(=O)[C@H](CCCCN)NC(=O)[C@H](CCCCN)NC(=O)[C@@H](NC(=O)[C@H](C)NC(=O)[C@@H](NC(=O)[C@@H](NC(=O)[C@H](CC(C)C)NC(=O)[C@H](CCCCN)NC(=O)[C@H](CCCCN)NC(=O)[C@@H](NC(=O)[C@H](Cc1ccccc1)NC(=O)[C@H](CCC(=O)O)NC(=O)[C@H](CCCCN)NC(=O)[C@H](Cc1c[nH]c2ccccc12)NC(=O)[C@@H](N)CCCCN)[C@@H](C)CC)[C@@H](C)O)[C@@H](C)O)C(C)C)C(C)C)[C@@H](C)O)[C@@H](C)O)C(=O)N[C@@H](CO)C(=O)O [compound 492] | 4.8 | 2.4 | >55
KWKKFIKELQKVLAPGGLLSNIVTSL [compound 493] | 10 | 5 | >55
KWKSFIKNLEKVLKKGPILANLVSIV [compound 491] | 8 | 2 | >55
KWKSFIKNLEKVLKPGGLLSNIVTSL [compound 490] | 8 | 1 | >55
